The source of these data is patent US12295936B2, “Immunomodulating urea azalides” (Zoetis Services LLC, priority 2020, dated 2025).

What all share (assay): LPS-stimulated whole bovine blood assay, MSD cytokine detection
Holding throughout (type): cell-based

One experiment relates to TNF-α. As to conditions: Bos taurus, LPS-stimulated bovine whole blood; read-out: TNF-α (IC50 μM).
In another experiment the test system is IL-1β. As to conditions: overstimulation of IL-1β, LPS-stimulated bovine whole blood.
A further experiment deals with IL-6. As to conditions: Bos taurus, LPS-stimulated bovine whole blood; read-out: IL-6 (IC50 μM). An excerpt:
In order to correlate RNA sequencing data to cytokine changes the whole blood assay was utilized. […] The enhancement result represents an overall stimulation of cytokine levels due to cellular stress or potential toxicity with increasing concentrations of the compound, representing a typical bell shape response curve for immunomodulatory activity.

Turning to `CCCNC[C@]1(O)[C@H](C)O[C@@H](O[C@H]2[C@H](C)[C@@H](O[C@@H]3O[C@H](C)C[C@H](N(C)C(=O)N(C)c4cncnc4)[C@H]3O)[C@](C)(O)C[C@@H](C)CN[C@H](C)[C@@H](O)[C@](C)(O)[C@@H](CC)OC(=O)[C@@H]2C)C[C@@]1(C)OC` [Example H-50, 1-((2S,3R,4S,6R)-2-(((2R,3S,4R,5R,8R,10R,11R,12S,13S,14R)-2-ethyl-3,4,10-trihydroxy-13-(((2R,4R,5S,6S)-5-hydroxy-4-methoxy-4,6-dimethyl-5-((propylamino)methyl)tetrahydro-2H-pyran-2-yl)oxy)-3,5,8,10,12,14-hexamethyl-15-oxo-1-oxa-6-azacyclopentadecan-11-yl)oxy)-3-hydroxy-6-methyltetrahydro-2H-pyran-4-yl)-1,3-dimethyl-3-(pyrimidin-5-yl)urea], the IC50 with TNF-α and in the experiment with IL-6 was > 250 µM in each case. Further, in the experiment with IL-1β, the “IL-1β OS of LPS” value was >250 µM.

On to `CC[C@H]1OC(=O)[C@H](C)[C@@H](O[C@H]2C[C@@](C)(OC)[C@](O)(CN3CC(N(C)C)C3)[C@H](C)O2)[C@H](C)[C@@H](O[C@@H]2O[C@H](C)C[C@H](N(C)C(=O)N(C)c3ccccc3)[C@H]2O)[C@](C)(O)C[C@@H](C)CN[C@H](C)[C@@H](O)[C@]1(C)O` [Example J-26, 1-((2S,3R,4S,6R)-2-(((2R,3S,4R,5R,8R,10R,11R,12S,13S,14R)-13-(((2R,4R,5S,6S)-5-((3-(dimethylamino)azetidin-1-yl)methyl)-5-hydroxy-4-methoxy-4,6-dimethyltetrahydro-2H-pyran-2-yl)oxy)-2-ethyl-3,4,10-trihydroxy-3,5,8,10,12,14-hexamethyl-15-oxo-1-oxa-6-azacyclopentadecan-11-yl)oxy)-3-hydroxy-6-methyltetrahydro-2H-pyran-4-yl)-1,3-dimethyl-3-phenylurea], for which the figures for the IC50 with TNF-α and with IL-6 were 122 µM and > 250 µM, respectively. For the same compound, the “IL-1β OS of LPS” value in the experiment with IL-1β was found to be 100 µM.

Turning to `CCCSC[C@]1(O)[C@H](C)O[C@@H](O[C@H]2[C@H](C)[C@@H](O[C@@H]3O[C@H](C)C[C@H](N(C)C(=O)N(C)c4ccccc4)[C@H]3O)[C@](C)(O)C[C@@H](C)CN[C@H](C)[C@@H](O)[C@](C)(O)[C@@H](CC)OC(=O)[C@@H]2C)C[C@@]1(C)OC` [Example D-2, 1-((2S,3R,4S,6R)-2-(((2R,3S,4R,5R,8R,10R,11R,12S,13S,14R)-2-ethyl-3,4,10-trihydroxy-13-(((2R,4R,5S,6S)-5-hydroxy-4-methoxy-4,6-dimethyl-5-((propylthio)methyl)tetrahydro-2H-pyran-2-yl)oxy)-3,5,8,10,12,14-hexamethyl-15-oxo-1-oxa-6-azacyclopentadecan-11-yl)oxy)-3-hydroxy-6-methyltetrahydro-2H-pyran-4-yl)-1,3-dimethyl-3-phenylurea], the IC50 with TNF-α came to 20 µM; with IL-6 it was 30 µM. Further, in the experiment on IL-1β, the “IL-1β OS of LPS” value is 16 µM.

Regarding `CC[C@H]1OC(=O)[C@H](C)[C@@H](O[C@H]2C[C@@](C)(OC)[C@H](O)[C@H](C)O2)[C@H](C)[C@@H](O[C@@H]2O[C@H](C)C[C@H](N(C)C(=O)N(C)c3ccc(C(F)(F)F)cc3)[C@H]2O)[C@](C)(O)C[C@@H](C)CN[C@H](C)[C@@H](O)[C@]1(C)O` [Example B-2a, 1-((2S,3R,4S,6R)-2-(((2R,3S,4R,5R,8R,10R,11R,12S,13S,14R)-2-ethyl-3,4,10-trihydroxy-13-(((2R,4R,5R,6S)-5-hydroxy-4-methoxy-4,6-dimethyltetrahydro-2H-pyran-2-yl)oxy)-3,5,8,10,12,14-hexamethyl-15-oxo-1-oxa-6-azacyclopentadecan-11-yl)oxy)-3-hydroxy-6-methyltetrahydro-2H-pyran-4-yl)-1,3-dimethyl-3-(4-(trifluoromethyl)phenyl)urea], the IC50 in the experiment with TNF-α is 9 µM; with IL-6 it was 23 µM. For the same compound, in the experiment with IL-1β, the “IL-1β OS of LPS” value was found to be 16 µM.

For `CCCNC[C@]1(O)[C@H](C)O[C@@H](O[C@H]2[C@H](C)[C@@H](O[C@@H]3O[C@H](C)C[C@H](N(CCC)C(=O)N(C)c4ccccc4)[C@H]3O)[C@](C)(O)C[C@@H](C)CN[C@H](C)[C@@H](O)[C@](C)(O)[C@@H](CC)OC(=O)[C@@H]2C)C[C@@]1(C)OC` [Example H-69, 1-((2S,3R,4S,6R)-2-(((2R,3S,4R,5R,8R,10R,11R,12S,13S,14R)-2-ethyl-3,4,10-trihydroxy-13-(((2R,4R,5S,6S)-5-hydroxy-4-methoxy-4,6-dimethyl-5-((propylamino)methyl)tetrahydro-2H-pyran-2-yl)oxy)-3,5,8,10,12,14-hexamethyl-15-oxo-1-oxa-6-azacyclopentadecan-11-yl)oxy)-3-hydroxy-6-methyltetrahydro-2H-pyran-4-yl)-3-methyl-3-phenyl-1-propylurea], the IC50 stood at 14 µM in the experiment with TNF-α and 8 µM with IL-6. Further, in the experiment on IL-1β, the “IL-1β OS of LPS” value is 6 µM.

In the case of `CC[C@H]1OC(=O)[C@H](C)[C@@H](O[C@H]2C[C@@](C)(OC)[C@](O)(CN3CCN(C)CC3)[C@H](C)O2)[C@H](C)[C@@H](O[C@@H]2O[C@H](C)C[C@H](N(C)C(=O)NC3CCCCC3)[C@H]2O)[C@](C)(O)C[C@@H](C)CN[C@H](C)[C@@H](O)[C@]1(C)O` [Example J-1, 3-cyclohexyl-1-((2S,3R,4S,6R)-2-(((2R,3S,4R,5R,8R,10R,11R,12S,13S,14R)-2-ethyl-3,4,10-trihydroxy-13-(((2R,4R,5S,6S)-5-hydroxy-4-methoxy-4,6-dimethyl-5-((4-methylpiperazin-1-yl)methyl)tetrahydro-2H-pyran-2-yl)oxy)-3,5,8,10,12,14-hexamethyl-15-oxo-1-oxa-6-azacyclopentadecan-11-yl)oxy)-3-hydroxy-6-methyltetrahydro-2H-pyran-4-yl)-1-methylurea], the IC50 is 70 µM in the experiment on TNF-α and 250 µM with IL-6. The “IL-1β OS of LPS” value in the experiment on IL-1β came to 200 µM.

With `CC[C@H]1OC(=O)[C@H](C)[C@@H](O[C@H]2C[C@@](C)(OC)[C@](O)(CNC)[C@H](C)O2)[C@H](C)[C@@H](O[C@@H]2O[C@H](C)C[C@H](N(C)C(=O)N(C)c3ccccc3)[C@H]2O)[C@](C)(O)C[C@@H](C)CN[C@H](C)[C@@H](O)[C@]1(C)O` [Example H-26, 1-((2S,3R,4S,6R)-2-(((2R,3S,4R,5R,8R,10R,11R,12S,13S,14R)-2-ethyl-3,4,10-trihydroxy-13-(((2R,4R,5S,6S)-5-hydroxy-4-methoxy-4,6-dimethyl-5-((methylamino)methyl)tetrahydro-2H-pyran-2-yl)oxy)-3,5,8,10,12,14-hexamethyl-15-oxo-1-oxa-6-azacyclopentadecan-11-yl)oxy)-3-hydroxy-6-methyltetrahydro-2H-pyran-4-yl)-1,3-dimethyl-3-phenylurea], the IC50 with TNF-α is 30 µM; in the experiment with IL-6 it was > 250 µM. Also, in the experiment on IL-1β, the “IL-1β OS of LPS” value came out at 250 µM.

For `CC[C@H]1OC(=O)[C@H](C)[C@@H](O[C@H]2C[C@@](C)(OC)[C@](O)(CNCCCOC)[C@H](C)O2)[C@H](C)[C@@H](O[C@@H]2O[C@H](C)C[C@H](N(C)C(=O)N(C)c3ccccc3)[C@H]2O)[C@](C)(O)C[C@@H](C)CN[C@H](C)[C@@H](O)[C@]1(C)O` [Example H-19, 1-((2S,3R,4S,6R)-2-(((2R,3S,4R,5R,8R,10R,11R,12S,13S,14R)-2-ethyl-3,4,10-trihydroxy-13-(((2R,4R,5S,6S)-5-hydroxy-4-methoxy-5-(((3-methoxypropyl)amino)methyl)-4,6-dimethyltetrahydro-2H-pyran-2-yl)oxy)-3,5,8,10,12,14-hexamethyl-15-oxo-1-oxa-6-azacyclopentadecan-11-yl)oxy)-3-hydroxy-6-methyltetrahydro-2H-pyran-4-yl)-1,3-dimethyl-3-phenylurea], the IC50 worked out at 70 µM in the experiment with TNF-α and 181 µM in the experiment on IL-6. For the same compound, the “IL-1β OS of LPS” value in the experiment on IL-1β came out at 100 µM.

Regarding `CC[C@H]1OC(=O)[C@H](C)[C@@H](O[C@H]2C[C@@](C)(OC)[C@](O)(Cn3ccnn3)[C@H](C)O2)[C@H](C)[C@@H](O[C@@H]2O[C@H](C)C[C@H](N(C)C(=O)N(C)c3ccccc3)[C@H]2O)[C@](C)(O)C[C@@H](C)CN[C@H](C)[C@@H](O)[C@]1(C)O` [Example J-28, 1-((2S,3R,4S,6R)-2-(((2R,3S,4R,5R,8R,10R,11R,12S,13S,14R)-13-(((2R,4R,5S,6S)-5-((1H-1,2,3-triazol-1-yl)methyl)-5-hydroxy-4-methoxy-4,6-dimethyltetrahydro-2H-pyran-2-yl)oxy)-2-ethyl-3,4,10-trihydroxy-3,5,8,10,12,14-hexamethyl-15-oxo-1-oxa-6-azacyclopentadecan-11-yl)oxy)-3-hydroxy-6-methyltetrahydro-2H-pyran-4-yl)-1,3-dimethyl-3-phenylurea], the IC50 was 57 µM in the experiment with TNF-α and 152 µM in the experiment on IL-6. The “IL-1β OS of LPS” value in the experiment on IL-1β turned out to be 100 µM.

Consider `CCNC(=O)N(C)[C@H]1C[C@@H](C)O[C@@H](O[C@@H]2[C@@H](C)[C@H](O[C@H]3C[C@@](C)(OC)[C@](O)(CN4CCN(C)CC4)[C@H](C)O3)[C@@H](C)C(=O)O[C@H](CC)[C@@](C)(O)[C@H](O)[C@@H](C)NC[C@H](C)C[C@@]2(C)O)[C@@H]1O` [Example J-2, 3-ethyl-1-((2S,3R,4S,6R)-2-(((2R,3S,4R,5R,8R,10R,11R,12S,13S,14R)-2-ethyl-3,4,10-trihydroxy-13-(((2R,4R,5S,6S)-5-hydroxy-4-methoxy-4,6-dimethyl-5-((4-methylpiperazin-1-yl)methyl)tetrahydro-2H-pyran-2-yl)oxy)-3,5,8,10,12,14-hexamethyl-15-oxo-1-oxa-6-azacyclopentadecan-11-yl)oxy)-3-hydroxy-6-methyltetrahydro-2H-pyran-4-yl)-1-methylurea], for which the IC50 with TNF-α and in the experiment on IL-6 was > 500 µM throughout. Besides, in the experiment with IL-1β, the “IL-1β OS of LPS” value was >500 µM.

What is called IC50 is the concentration that inhibits the measured activity by half.
